According to patent US20120121753A1, “COMPOSITIONS AND METHODS FOR PREVENTION AND TREATMENT OF OBESITY AND OBESITY RELATED METABOLIC SYNDROME” (JINIS BIOPHARMACEUTICALS CO., priority 2009, published 2012):

Tests used:
[1] = tested on: gastric and pancreatic lipase; settings: background statement; cited from earlier work
[2] = tested on: Male SD rats; test: Effect of FARM3 on diet-induced obesity (4 weeks, obese rats); assay type: in vivo, rat; settings: 4 weeks of treatment
Text: The 3 month old male SD rats were given high-fat feed (described above) for 8 weeks to develop diet-induced obesity with average body weight of 425 g. The rats were randomly divided into groups (n=14 per group) and received fermented yogurt or drug under continued high-fat diet conditions: 3179 group (high fat diet with yogurt fermented by L. acidophilus KCTC 3179 strain), FARM3 group (high fat diet with yogurt fermented by FARM3 mutant), Orlistat™ (high fat diet with Xenical™ in an amount of 200 mg/kg diet).
The 3 month old male SD rats were given high-fat feed for 8 weeks to develop diet-induced obesity with average body weight of 425 g. The diet-induced obese rats were administered daily yogurt fermented with wild-type Lactobacillus 3179 (∘, high fat diet with yogurt fermented by L. acidophilus KCTC3179 strain), yogurt fermented with FARM3 ([…], high fat diet with yogurt fermented by FARM3) or Orlistat™ (Δ, high fat diet with Xenical™ 200 mg/kg diet) under continued high-fat diet condition for 4 weeks.

**Q.** With `CCCCCCCCCCC[C@@H](C[C@@H]1OC(=O)[C@H]1CCCCCC)OC(=O)[C@H](CC(C)C)NC=O` [Orlistat™, Orlistat] as the compound, how does the “reduction of dietary fat absorption” value [1] read?
**A.** approximately 30%

**Q.** What about the oily feces [2] of the same compound?
**A.** oily feces
